Source: US20250277784A1, “EXPRESSION SYSTEMS FOR THE ALPHA6BETA4 NICOTINIC ACETYLCHOLINE RECEPTOR AND METHODS OF USE THEREOF” (Janssen Pharmaceutica NV, priority 2021, published 2025)
Where two headings read alike, the source gives them in different places.

Assays:
[1] = molecular target: T1, Human α6β4 nAChR (Homo sapiens, UniProt P30926+Q15825); assay: FLIPR assay, agonist-evoked calcium flux in recombinant cells co-transfected with BARP, SULT2B1 and CHAT; assay type: cell-based
T1 construct: expressed in transfected cells
T1 sequence (Q15825 26-494): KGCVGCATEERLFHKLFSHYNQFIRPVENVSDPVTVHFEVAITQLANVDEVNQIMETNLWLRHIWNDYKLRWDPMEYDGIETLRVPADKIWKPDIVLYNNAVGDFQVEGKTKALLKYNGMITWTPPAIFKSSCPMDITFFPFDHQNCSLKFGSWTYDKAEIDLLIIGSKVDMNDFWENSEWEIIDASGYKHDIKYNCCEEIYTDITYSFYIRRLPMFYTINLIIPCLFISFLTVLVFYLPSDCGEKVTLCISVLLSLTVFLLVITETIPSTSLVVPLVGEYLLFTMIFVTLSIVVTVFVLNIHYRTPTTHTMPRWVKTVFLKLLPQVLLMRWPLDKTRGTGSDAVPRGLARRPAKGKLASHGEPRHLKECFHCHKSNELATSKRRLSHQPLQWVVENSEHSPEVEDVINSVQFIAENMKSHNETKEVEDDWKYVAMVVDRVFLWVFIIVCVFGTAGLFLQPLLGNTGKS
T1 sequence (P30926 22-498): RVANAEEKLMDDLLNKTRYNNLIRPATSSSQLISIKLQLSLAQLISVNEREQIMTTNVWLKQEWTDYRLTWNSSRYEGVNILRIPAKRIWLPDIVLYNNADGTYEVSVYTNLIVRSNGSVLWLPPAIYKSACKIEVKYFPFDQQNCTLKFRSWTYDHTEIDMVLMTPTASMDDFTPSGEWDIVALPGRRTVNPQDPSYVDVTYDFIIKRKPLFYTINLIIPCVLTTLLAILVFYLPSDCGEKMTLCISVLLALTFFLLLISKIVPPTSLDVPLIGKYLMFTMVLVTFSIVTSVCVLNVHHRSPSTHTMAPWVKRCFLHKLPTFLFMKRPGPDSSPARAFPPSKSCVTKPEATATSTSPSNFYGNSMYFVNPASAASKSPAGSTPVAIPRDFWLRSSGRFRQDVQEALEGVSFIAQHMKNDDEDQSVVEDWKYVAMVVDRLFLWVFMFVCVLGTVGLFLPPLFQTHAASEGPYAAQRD
Experimental: In one embodiment, FLIPR assay is used to identify agonists of α6β4 nAChR mediated calcium flux. In this assay, the recombinant cells are incubated with a calcium sensitive dye (such as Ca5), exposed to a test compound, and calcium flux is imaged by FLIPR^TETRA.
• Prepare a cell suspension of 1×10^6 cells per mL by centrifuging cells and resuspending in fresh, prewarmed media; • With 1900 mL of cells shaking, prepare the following transfection mix in 50 ml of OptiPro SFM Medium; • Add 2.5 mL FreeStyle MAX reagent to 47.5 mL of OptiPro SFM to an empty 50 ml tube; • In a second 50 ml tube, add 2.5 mg total DNA (α6, β4, BARP, CHAT, and SULT2B1 at a ratio of 1:1:2:1:1) in OptiPro SFM to a final volume of 50 ml and vortex gently; • Transfer the diluted DNA to the FreeStyle MAX reagent and gently mix the solution immediately and incubate for 10 minutes at room temperature; • Transfer the 100 ml FreeStyle MAX/DNA transfection mix to the cells and homogenize the culture; • Incubate 1 hour at 37° C. with 8% CO2; • Pour cells into sterile 500 mL tubes; • Spin at 1000 rpm for 7 minutes; • Remove supernatant; and • Resuspend Cells in Plating Media.
• Ethanol vials to decontaminate; • Pour cells into 50 ml conical tube; • Slowly add 10 ml warmed plating media drop wise; • Pipet up and down gently a few times to dislodge pellet if it exists; • Spin at 1000 RPM for 7 min, aspirate supernatant, and resuspend in 25 ml plating; • Seed 35,000 cells/well in 35 μL (1.0×10^6 cells/mL); and • Incubate plates for 24 hours at 37° C. Then transfer the plate to 30° C. with 5% CO2 in a humidified atmosphere for 24-48 hours.
• Wash plate with plate washer (4 washes×100 μL/wash) using compound dilution buffer, leaving 25 µL in each well; • Add 25 μL of 2× Ca6 dye to each well; • Incubate at room temperature for 1 hour; • Wash plate with plate washer (4 washes×100 μL/wash) using compound dilution buffer, leaving 50 µL in each well; • Transfer plates to FLIPR for compound addition. Concentration Response Curves for Agonist-Evoked Activity of α6β4 nAChR
Human α6 and β4 subunits of α6β4 nAChR were co-transfected with BARP, SULT2B1, and CHAT in HEK293T cells and incubated at 30° C. for 24-48 hours. The transfected cells were incubated for one hour at room temperature with Ca5 dye followed by stimulating with agonists for 3.5 minutes. Agonist-evoked calcium flux was measured using a FLIPR^TETRA imager and final FLIPR signals were averaged and plotted (FIG. 1).

[2] = molecular target: T1, Human α6β4 nAChR; assay: FLIPR assay, antagonist on nicotine-evoked calcium flux (two-addition protocol); assay type: cell-based; settings: HEK293T cells, 1st addition test compound 3 min, 2nd addition nicotine (EC80, 15 μM) 3.5 min, FIG. 2
Experimental: In one embodiment, FLIPR assay is used to identify antagonists of nicotine-evoked α6β4 nAChR mediated calcium flux. In this assay, the recombinant cells are incubated with a calcium sensitive dye (such as Ca5). Using a double addition protocol, the recombinant cells are exposed to test compounds during the first duration, and to nicotine (e.g., at EC80 (15 μm)) during the second duration. Thereafter, the calcium flux is imaged by FLIPR^TETRA. […]
Human α6 and β4 subunits of α6β4 nAChR were co-transfected with BARP, SULT2B1, and CHAT in HEK293T cells and incubated at 30° C. for 24-48 hour. […] Nicotine-evoked calcium flux was then measured using a FLIPR^TETRA imager and the final FLIPR signals were averaged and plotted (FIG. 2).

[3] = system: α6 knockout mice; settings: following both inflammatory and neuropathic injuries; cited from earlier work
[4] = system: patients with diabetic peripheral neuropathic pain; settings: phase 2 clinical trial; cited from earlier work
[5] = HEK293T cells, incubated at 30° C. for 24-48 hours, Ca5 dye, agonist stimulation 3.5 minutes, FIG. 1

Clc1cc(N2C[C@@H]3CN[C@@H]3C2)cnc1Cl [ABT-894]
Agonist-evoked calcium flux (FLIPR signal) [1, 5]: enhances calcium flux in a dose-dependent manner

c1cnc2cc3c(cc2n1)[C@@H]1CNC[C@H]3C1 [varenicline]
Agonist-evoked calcium flux (FLIPR signal) [1, 5]: enhances calcium flux in a dose-dependent manner

CCN1C[C@]2(COC(=O)c3ccccc3N3C(=O)C[C@H](C)C3=O)CC[C@H](OC)[C@@]34[C@@H]5C[C@H]6[C@H](OC)[C@@H]5[C@](O)(C[C@@H]6OC)[C@@](O)([C@@H](OC)[C@H]23)[C@@H]14 [MLA, methyllycaconitine]
Nicotine-evoked calcium flux (FLIPR signal) [2]: decreases the nicotine-evoked calcium flux in a dose-dependent manner

CN1CCCC1c1cccnc1 (stereo not drawn) [nicotine]
Agonist-evoked calcium flux (FLIPR signal) [1]: enhances calcium flux in a dose-dependent manner | Nicotine EC80 [1]: 15 µM | Analgesic effects [3]: absent

c1cncc(OC[C@@H]2CCN2)c1 [A-85380]
Agonist-evoked calcium flux (FLIPR signal) [1, 5]: enhances calcium flux in a dose-dependent manner

Clc1ccc(OC[C@H]2CCN2)cn1 [ABT-594]
Agonist-evoked calcium flux (FLIPR signal) [1, 5]: enhances calcium flux in a dose-dependent manner | Efficacy for diabetic neuropathy [4]: robust efficacy | Side effects [4]: unacceptable side effects

Clc1ccc(C2CC3CCC2N3)cn1 (stereo not drawn) [epibatidine]
Agonist-evoked calcium flux (FLIPR signal) [1, 5]: enhances calcium flux in a dose-dependent manner

O=c1cccc2n1C[C@@H]1CNC[C@H]2C1 [cytisine]
Agonist-evoked calcium flux (FLIPR signal) [1]: enhances calcium flux in a dose-dependent manner
